Test results from PubChem BioAssay AID2060624 (Molecular Pharmacology Branch, DTP, NCI, 2025).
“And” between values parts separate entries of the source, which are not always exact repeats. Identical values can stand only once.

Test system: 217524-143-R1-J4-PDC spheroids with HUVEC/MSC, viability
Assay: Anticancer human tumor 217524-143-R1-J4-PDC patient-derived pancreatic carcinoma cell line growth inhibition [CLK]
Conditions: for viability, T/C: stronger effect = lower value
From the text: A high-throughput screen of multi-cell type tumor spheroids was designed to identify active combinations of […] and targeted small molecules. Complex spheroids include a stromal component modeled by human endothelial cells (HUVEC) and fibroblasts modeled by human mesenchymal stem cells (MSCs). The concentration ranges selected for each drug and investigational agent were based upon clinically achievable concentrations if the clinical Cmax of the agent was known.
Compounds. The drugs and investigational agents: cirtuvivint (SM08502; NSC835563), CC-671 (NSC850746), vemurafenib (NSC761431), tapotoclax (NSC804041), sotorasib (NSC818433), adagrasib (NSC831453), MRTX-1133 (NSC836407), BAY2416964 (NSC825713), copanlisib (NSC816437), inavolisib (NSC800729), abemaciclib (NSC768073), osimertinib (NSC779217), entinostat (NSC756642), eltanexor (KPT-8602, NSC794443), venetoclax (NSC766270), ceralasertib (NSC777638), bortezomib (NSC756655), olaparib (NSC753686), talazoparib (NSC767125), alisertib (NSC759677), peposertib (NSC802822), gemcitabine (NSC613327), 5-fluorouracil (NSC19893), SN-38 (NSC673596), oxaliplatin (NSC266046), paclitaxel (NSC125973), and doxorubicin (NSC123127), were obtained from the National Cancer Institute (NCI) Developmental Therapeutics Program Chemical Repository. The FDA-approved anticancer drug set is available from the Developmental Therapeutics Program at https://dtp.cancer.gov/organization/dscb/obtaining/available plates.htm. […] The stock solutions were prepared in dimethyl sulfoxide (DMSO, Sigma-Aldrich, St. Louis, MO, cat. D2650), except for the platinum complexes which were prepared in saline (Quality Biological, Gaithersburg, MD, cat. 114-055-101), at 800-fold the tested concentration and stored at -70 degrees C prior to their use. All drugs and investigational agents were tested over a range starting from a high concentration at or near the clinical Cmax and decreasing in half-log increments. If the clinical Cmax for an agent had not been determined, the highest concentration tested was 10 microM.
Cell Culture. All cells were maintained in an incubator at 37 degrees C and 5% CO2 with 95% humidity. The PDC lines were cultured according to standard operating procedures established by the NCI PDMR. Briefly, all PDCs were thawed and cultured in Matrigel-coated flasks prepared with a working solution of 1X Ham's F-12 nutrient mix, without supplementation (Invitrogen, Waltham, MA, cat. 11765054), 100 U/mL penicillin-streptomycin (Invitrogen, cat. 15140122), and 2.5% Matrigel (Corning Inc., Corning, NY, cat. 354248) for the first three passages. The 947758-054-R-J2-PDC line was cultured in 6B/Colon 1A media, which includes advanced DMEM/F-12 (Thermo Fisher Scientific, cat. 12634028), 10 mM HEPES (Thermo Fisher Scientific, cat. 15630080), 1X GlutaMAX supplement (Thermo Fisher Scientific, cat. 35050061), 0.1 mg/mL primocin (InvivoGen, cat. ant-pm-2), 10% defined fetal bovine serum, heat inactivated (HyClone Laboratories Inc., cat. SH30070.03HI), 1.25 mM N-Acetyl-L-cysteine (Sigma-Aldrich, cat. A9165), 10 mM nicotinamide (Sigma-Aldrich, cat. N0636), 1X B-27 supplement (Thermo Fisher Scientific, cat. 17504044), 1X N-2 supplement (Thermo Fisher Scientific, cat. 17502048), and 10 microM Y-27632 dihydrochloride (Tocris Bioscience, cat. 1254). The 876862-298-R-J1-PDC was cultured in 6E media, which includes all 6B/Colon 1A media components plus 50% L-WRN conditioned media (ATCC, cat. CRL-3276), 50 ng/mL recombinant human EGF recombinant protein (hEGF; Thermo Fisher Scientific, cat. PHG0311), 10 ng/mL recombinant human fibroblast growth factor 10 (hGFG-10; PeproTech, cat. 100-26), 1 ng/mL recombinant human fibroblast growth factor 2 (hFGF-2; PeproTech, cat. 100-18B), and 1 µM prostaglandin E2 (PGE2; Tocris, cat. 2296). The 227483-062-R1-J1-PDC line was cultured in Panc media, containing all 6E components except hFGF-2, with the addition of 500 nM SB-431542 (Selleckchem, cat. S1067) and 10 nM gastrin (Tocris, cat. 3006). […]
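Note: spheroids exposed to agents for seven days before reading.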
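Throughout, for viability, T/C: 100% = DMSO vehicle control viability.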

`C=CC(=O)Nc1cc(Nc2nccc(-c3cn(C)c4ccccc34)n2)c(OC)cc1N(C)CCN(C)C` + CN1CCN(c2cc(C(=O)Nc3cc4cc(-c5cnn(C)c5)ccc4cn3)ccn2)CC1 was tested. Which IC50 (curve of first compound, second compound 0.0316 µM) did it give?
The IC50 was 127 nM.

What about the IC50 (curve of first compound, second compound 0.1 µM) of the same compound?
The IC50 was 32.5 nM.

And the IC50 (curve of first compound, second compound 0.316 µM)?
Its IC50 is < 0.949 nM.

What about the IC50 (curve of first compound, second compound 1 µM) of the same compound?
Its IC50 is < 0.949 nM.

What about the IC50 (curve of first compound, second compound 3.16 µM) of the same compound?
Its IC50 is < 0.949 nM.

What about the IC50 (curve of first compound, second compound 10 µM) of the same compound?
The IC50 was < 0.949 nM.

And the viability, T/C (second compound 0.0316 µM, first compound 0.000949 µM)?
Its viability, T/C is 79.8%.

What about the viability, T/C (second compound 0.0316 µM, first compound 0.003 µM) of the same compound?
Its viability, T/C is 63.2%.

What about the viability, T/C (second compound 0.0316 µM, first compound 0.00949 µM) of the same compound?
The viability, T/C was 82.2%.

What about the viability, T/C (second compound 0.0316 µM, first compound 0.03 µM) of the same compound?
The viability, T/C was 72.5%.

And the viability, T/C (second compound 0.0316 µM, first compound 0.0949 µM)?
The viability, T/C was 56%.

And the viability, T/C (second compound 0.0316 µM, first compound 0.3 µM)?
Its viability, T/C is 32.5%.

And the viability, T/C (second compound 0.1 µM, first compound 0.000949 µM)?
The viability, T/C was 57.5%.

What about the viability, T/C (second compound 0.1 µM, first compound 0.003 µM) of the same compound?
The viability, T/C was 61.2%.

And the viability, T/C (second compound 0.1 µM, first compound 0.00949 µM)?
The viability, T/C was 61.9%.

What about the viability, T/C (second compound 0.1 µM, first compound 0.03 µM) of the same compound?
The viability, T/C was 47.2%.

And the viability, T/C (second compound 0.1 µM, first compound 0.0949 µM)?
The viability, T/C was 39.5%.

And the viability, T/C (second compound 0.1 µM, first compound 0.3 µM)?
The viability, T/C was 24.8%.

And the viability, T/C (second compound 0.316 µM, first compound 0.000949 µM)?
The viability, T/C was 25.4%.

What about the viability, T/C (second compound 0.316 µM, first compound 0.003 µM) of the same compound?
Its viability, T/C is 27.2%.

And the viability, T/C (second compound 0.316 µM, first compound 0.00949 µM)?
The viability, T/C was 22.9%.

And the viability, T/C (second compound 0.316 µM, first compound 0.03 µM)?
Its viability, T/C is 22.5%.

And the viability, T/C (second compound 0.316 µM, first compound 0.0949 µM)?
Its viability, T/C is 19%.

What about the viability, T/C (second compound 0.316 µM, first compound 0.3 µM) of the same compound?
The viability, T/C was 12.6%.

What about the viability, T/C (second compound 1 µM, first compound 0.000949 µM) of the same compound?
The viability, T/C was 2.17%.

And the viability, T/C (second compound 1 µM, first compound 0.003 µM)?
Its viability, T/C is 2.28%.

And the viability, T/C (second compound 1 µM, first compound 0.00949 µM)?
The viability, T/C was 1.87%.

What about the viability, T/C (second compound 1 µM, first compound 0.03 µM) of the same compound?
The viability, T/C was 1.61%.

What about the viability, T/C (second compound 1 µM, first compound 0.0949 µM) of the same compound?
Its viability, T/C is 1.64%.

And the viability, T/C (second compound 1 µM, first compound 0.3 µM)?
The viability, T/C was 0.9%.

And the viability, T/C (second compound 3.16 µM, first compound 0.000949 µM)?
Its viability, T/C is 1.11%.

And the viability, T/C (second compound 3.16 µM, first compound 0.003 µM)?
Its viability, T/C is 0.99%.

What about the viability, T/C (second compound 3.16 µM, first compound 0.00949 µM) of the same compound?
The viability, T/C was 1.06%.

And the viability, T/C (second compound 3.16 µM, first compound 0.03 µM)?
Its viability, T/C is 0.81%.

What about the viability, T/C (second compound 3.16 µM, first compound 0.0949 µM) of the same compound?
Its viability, T/C is 1.04%.

What about the viability, T/C (second compound 3.16 µM, first compound 0.3 µM) of the same compound?
The viability, T/C was 0.71%.

And the viability, T/C (second compound 10 µM, first compound 0.000949 µM)?
The viability, T/C was 0.22%.

And the viability, T/C (second compound 10 µM, first compound 0.003 µM)?
Its viability, T/C is 0.25%.

What about the viability, T/C (second compound 10 µM, first compound 0.00949 µM) of the same compound?
Its viability, T/C is 0.25%.

What about the viability, T/C (second compound 10 µM, first compound 0.03 µM) of the same compound?
The viability, T/C was 0.26%.

And the viability, T/C (second compound 10 µM, first compound 0.0949 µM)?
The viability, T/C was 0.27%.

And the viability, T/C (second compound 10 µM, first compound 0.3 µM)?
Its viability, T/C is 0.25%.

Which results are given for `CNC(=O)c1ccc(Nc2nc(OC3CCCC3)c3c(-c4ccc5nc(C)oc5c4)c[nH]c3n2)c(OC)c1`?
viability, T/C (compound 0.0316 µM): 91.6% [middle of 12 runs]; viability, T/C (compound 0.1 µM): 46.5% [middle of 12 runs]; viability, T/C (compound 0.316 µM): 37.7% [middle of 12 runs]; viability, T/C (compound 1 µM): 31.2% [middle of 12 runs]; viability, T/C (compound 3.16 µM): 27.4% [middle of 12 runs]; viability, T/C (compound 10 µM): 27.3% [middle of 12 runs]; IC50 (compound alone, run of 08/01/2023): 96.4 nM [middle of 12 runs]

What does the source list for `C=CC(=O)Nc1cc(Nc2nccc(-c3cn(C)c4ccccc34)n2)c(OC)cc1N(C)CCN(C)C`?
viability, T/C (compound 0.000949 µM): 106% and 100%; viability, T/C (compound 0.003 µM): 83.4% and 96.4%; viability, T/C (compound 0.00949 µM): 100% and 92.1%; viability, T/C (compound 0.03 µM): 90.3% and 81.1%; viability, T/C (compound 0.0949 µM): 57.1% and 43.5%; viability, T/C (compound 0.3 µM): 35.3% and 33.1%; IC50 (curve of compound): 137 nM and 78.7 nM
